Data taken from patent US9238795B2, “Populations of smooth muscle cells of specific embryonic lineages” (Cambridge Enterprise Limited, priority 2011, dated 2016).
“Also recorded” adds a separate entry of the source.

Key:
Format in all cases: cell-based, human
hESCs = assay: QPCR analysis of mesoderm subtype markers in differentiating hESCs; details: for Expression of the lateral plate marker KDR: in the presence of activin A (10 ng/ml), BMP4 0 to 100 ng/ml
Experimental: Human embryonic stem cells (hESCs) were cultured in chemically defined medium (CDM) with activin A (10 ng/mL) and FGF2 (20 ng/mL) to maintain pluripotency (Vallier et al, 2005).
An efficient 36 h protocol to differentiate hESCs into early mesoderm was named FlyB (F, FGF2 at 20 ng/ml; Ly, LY294002 at 10 μM and B, BMP4 at 10 ng/ml). Differentiation of paraxial mesoderm can be induced by removal of BMP4 and blockage of the PI3K pathway (1.5 day FLyB+3.5 days FLy, where F is FGF2 at 5-25 ng/ml and Ly is LY294002 at 5-10 μM). Differentiation of lateral plate mesoderm can be induced by increasing the levels of BMP4 and removal of Ly (1.5 day FLyB+3.5 days FB, where F is FGF2 at 5-25 ng/ml and B is BMP4 at […]).
(§1) Total RNA was extracted with RNeasy Mini kit according to the manufacturer's instructions (QIAGEN). One microgram of RNA was reverse-transcribed with Fermentas Maxima First Strand cDNA Synthesis Kit. Quantitative polymerase chain reaction (QPCR) mixtures were prepared as described (Applied Biosystems SYBR Green PCR Master Mix). QPCR reactions were performed by Applied Biosystems 7500 Fast Real-Time PCR System with technical duplicates and normalized to Porphobilinogen Deaminase (PBGD) in the same run. Error bars on all QPCR graphs represent standard error of mean from three independent biological replicates.
The protocol used is shown schematically in FIG. 1A, depicting the growth factors used and the duration of the treatment. For the first 36 hours, growth factors used were FLyB10 [FGF2 (20 ng/mL), BMP4 (10 ng/mL) and LY294002 (10 μM)] to induce primitive streak). The subsequent 3.5 days of differentiation specifies mesoderm subtypes. FLy [FGF2 (20 ng/mL) and LY294002 (10 μM)] for somitic mesoderm; FB50 [FGF2 (20 ng/mL) and BMP4 (50 ng/mL)] for lateral mesoderm.
QPCR analysis was performed for Brachyury, MEOX1 and FLK1 in hESCs grown according to the protocol depicted in FIG. 1A and harvested at day 5. The BMP4 gradient tested ranged from 0 ng/mL (Nog) to 100 ng/mL (B100). The bars in FIG. 2 represent the absence or presence of activin A (A) added at 10 ng/ml respectively. […] Therefore, absence of activin A promoted mesoderm formation.
We then evaluated the effect of 10 μM LY294002 (Ly) on mesoderm subtype specification. QPCR analysis of LMO2, CD31, PECAM1, NKX2.5, ISL1, MEOX1, TBX6, TCF15 and PAX1 was performed in hESCs grown for 36 h in FLyB10 and then for 3.5 additional days in F or FB50, with (RH bars) or without (LH bars) […]. […] On the other hand, the presence of Ly promoted the expressions of somitic markers—MEOX1 and TBX6. […] Again, the presence of 50 ng/ml BMP4 (B50) inhibited the expression of all paraxial markers and promoted the expression of lateral plate markers.

derived SMCs [1] = assay: Contraction study; details: for Percentage of all derived SMCs that contracted: upon carbachol or angiotensin II treatment
Experimental: (§2) On culture dishes, SMCs were loaded with the calcium-sensitive fluorophore, Fluo-4 AM (2.5 μM; Molecular Probes). Cells were typsinised into single-cell suspension for calcium flux measurement using the CyAn ADP flow cytometer (Packman Coulter). Contraction was induced by treating the cells with carbachol (100 μM). Fluo-4 was excited by the 488 nm laser and the fluorescence emission was measured by the FL1 channel. Cells were analysed just before addition of carbachol, 1 minute and 3 minutes after addition. On the other hand, contraction images of adherent SMCs were acquired by an inverted microscope (Olympus) before and after 10 minutes of carbachol treatment.
Over 50% and 20% of all derived SMCs contracted upon carbachol and angiotensin II treatments, respectively.

derived SMCs [2] = assay: Calcium flux measurement with Fluo-4; details: carbachol 100 μM
Experimental: as §2
Changes of calcium signalling in cells are indicative of their contractile properties in response to carbachol, a potent vasoconstrictor. The origin-specific SMCs were loaded with fluo-4, a calcium-sensitive dye, prior to the addition of carbachol (FIG. 13) and fluorescent emission from the fluo-4 measured over time (T) after the addition of carbachol to the origin-specific SMCs. Hela cells were used as negative control.
To assess SMC contractile potential, we initially performed immunostaining for vinculin and phalloidin staining for actin filaments, Well-developed focal adhesion complexes were detected in all three SMC subtypes. The cells were then preloaded with a calcium-sensitive dye, Fluo-4. Carbachol (100 μM) stimulated an increase in Fluo-4 fluorescence intensity in the derived SMCs within 1 min of treatment (FIG. 14), indicating increased intracellular calcium flux. After 2 min of treatment, Fluo-4 intensity decreased, approaching original basal levels by 5 min.

[3] = system: hPSC-derived SMCs and rat aortic SMCs; assay: MMP and TIMP expression after IL-1β treatment (qRT-PCR); details: IL-1β 10 ng/ml
Experimental: as §1
Only NE-SMCs proliferated in response to TGF-β1 (FIGS. 24, 25). TGF-β1 may have enhanced cell proliferation by autocrine production of TGF-β2 and PDGFA. We investigated whether TGF-β1 stimulated greater auto-induction of TGF-β2 and PDGFA in SMCs of a neuroectoderm origin. […] Correspondingly, elevated TGFB2 and PDGFA protein levels were found in NE-SMC lysates after TGF-β1 treatment (FIG. 22). Taken together, the data on requirement for MKL2 and their unique proliferative and secretory responses validate the hypothesis that our different SMC subtypes are analogous to the distinct lineage-dependent SMC populations documented in vivo. […]

NE-SMCs [4] = assay: Auto-induction of TGF-β2 and PDGFA (qRT-PCR, western blot)
Experimental: as §1
To obtain protein extracts, cells were washed twice with ice-cold PBS. Ice-cold RIPA buffer was then added to the cells. Cells were scraped off the culture dishes and transferred into a centrifuge tube. Suspension was agitated by an orbital shaker for 15 minutes to lyse the cells at 4° C. Lysate was centrifuged at 14,000 g in a precooled centrifuge for 15 minutes and the supernatant was kept frozen at −80. Protein concentrations were determined using Thermo Scientific BCA Protein Assay Kit. 20 μg total protein was separated by SDS-PAGE and on stacking gel (30% acrylamide, 1M Tris, 10% SDS, 10% APS, TEMED) then transferred to a nitrocellulose membrane. […]

PM-SMC = assay: Proliferation response by MTT assay; details: over 3 d; Ang II 1 μM, TGF-β1 5 ng/ml, serum 10%
Excerpt: (§3) To confirm that we had generated origin-specific SMC subtypes, we used cytokines known to induce unique responses in aortic SMCs of distinct origins. Angiotensin II (Ang II) promotes medial hyperplasia in the ascending aorta (neuroectoderm derivative) but not the descending aorta (mesoderm derivative), TGF-β1 also encourages greater cell proliferation in SMCs of neuroectoderm origin compared to those of mesodermal origin. […] Cell cycle analysis confirmed that Ang II, TGF-β1 or serum each increased the proportion of NE-SMCs in S and G2-M phases compared to vehicle control after 24 h (FIGS. 25A and 25B).

LM-SMC = assay: Proliferation response by MTT assay; details: over 3 d; Ang II 1 μM, TGF-β1 5 ng/ml, serum 10%
Excerpt: as §3

NE-SMC = assay: Proliferation response by MTT assay; details: over 3 d; Ang II 1 μM, TGF-β1 5 ng/ml, serum 10%
Excerpt: as §3

NE-SMCs [5] = assay: Cell cycle analysis; details: after 24 h, compared to vehicle control
Excerpt: as §3

[6] = 50 ng/ml BMP4 (B50), 36 h FLyB10 then 3.5 days

Molecule: O=c1cc(N2CCOCC2)oc2c(-c3ccccc3)cccc12 [LY294002, 2-morpholin-4-yl-8-phenylchromen-4-one, reference compound]
- Expression of lateral plate markers LMO2, PECAM1, NKX2-5, ISL1 (hESCs; 10 μM LY294002 in F or FB50, compared to no LY294002): had no effect or inhibited; also recorded: significantly downregulated
- Expression of paraxial markers MEOX1, TBX6, TCF15, PAX1 (hESCs; 10 μM LY294002 in the presence of 20 ng/ml FGF2 (F) alone, versus no LY294002): promote paraxial mesoderm patterning; also recorded: significantly promoted

Molecule: C[N+](C)(C)CCOC(N)=O [carbachol]
- Change of cell surface area in contracting cells (derived SMCs [1]; 10 min of carbachol treatment, n=20): 10-20%
- Percentage of all derived SMCs that contracted (derived SMCs [1]): Over 50%
- Fluo-4 fluorescence intensity (intracellular calcium flux) (derived SMCs [2]): transient increase
- Time to increase in Fluo-4 fluorescence intensity (derived SMCs [2]): ≤ 1 min
- Fluo-4 fluorescence intensity (intracellular calcium flux) (derived SMCs [2]; listed as Carbachol): increase

Molecule: IL-1β: an atherogenic cytokine
- Induction of Mmp9 relative to control in rat SMCs versus hPSC-derived SMCs ([3]; 6 h): ~100 fold
- MMP9 and TIMP1 expression levels ([3]; SMC subtypes and rat SMCs of distinct origins): differentially activated

Molecule: TGF-β1: homodimeric polypeptide which regulates proliferation and differentiation
- TGFB2 and PDGFA expression (NE-SMCs [4]; 10 h of TGF-β1 (5 ng/ml), compared with vehicle control, only in NE-SMCs): significantly upregulated
- TGFB2 and PDGFA protein levels in lysates (NE-SMCs [4]; after TGF-β1 treatment, western blot): elevated
- Proliferation (PM-SMC): did not
- Proliferation (LM-SMC): did not
- Proliferation (NE-SMC): proliferated
- Proportion of cells in S and G2-M phases (NE-SMCs [5]): increased

Molecule: angiotensin II: vasoconstrictor; promotes medial hyperplasia in the ascending aorta (DRVYIHPF; Angiotensin-2; UniProt P01019 25-32, looked up) [reference compound]
- Percentage of all derived SMCs that contracted (derived SMCs [1]): > 20%
- Proliferation (PM-SMC): did not
- Proliferation (LM-SMC): did not
- Proliferation (NE-SMC): proliferated
- Proportion of cells in S and G2-M phases (NE-SMCs [5]): increased

B1: BMP4: Bone Morphogenic Protein 4, TGFβ ligand stimulating SMAD1, SMAD5 and SMAD9 signalling (protein, UniProt P12644 293-408, looked up)
Bone morphogenetic protein 4: SPKHHSQRARKKNKNCRRHSLYVDFSDVGWNDWIVAPPGYQAFYCHGDCPFPLADHLNSTNHAIVQTLVNSVNSSIPKACCVPTELSAISMLYLDEYDKVVLKNYQEMVVEGCGCR
- Expression of all paraxial markers (hESCs; [6]): inhibited
- Expression of lateral plate markers (hESCs; [6]): promoted
- Expression of FLK1 (hESCs; hESCs harvested at day 5, BMP4 0 to 100 ng/mL): increased
- Expression of the lateral plate marker KDR (hESCs; day 5): promote the expression

B2: activin A: dimeric polypeptide stimulating the Activin/Nodal pathway (protein, UniProt P08476 311-426, looked up)
Inhibin beta A chain: GLECDGKVNICCKKQFFVSFKDIGWNDWIIAPSGYHANYCEGECPSHIAGTSGSSLSFHSTVINHYRMRGHSPFANLKSCCVPTKLRPMSMLYYDDGQNIIKKDIQNMIVEECGCS
modifications: Inhibin beta A chain
- Expression of Brachyury (T), MEOX1 and FLK1 (hESCs; absence versus presence of activin A at 10 ng/ml, day 5): upregulated
- Requirement for mesoderm patterning (hESCs; hESCs harvested at day 5): not required

B3: Noggin: a BMP antagonist (protein, UniProt Q13253 28-232, looked up)
Noggin: QHYLHIRPAPSDNLPLVDLIEHPDPIFDPKEKDLNETLLRSLLGGHYDPGFMATSPPEDRPGGGGGAAGGAEDLAELDQLLRQRPSGAMPSEIKGLEFSEGLAQGKKQRLSKKLRRKLQMWLWSQTFCPVLYAWNDLGSRFWPRYVKVGSCFSKRSCSVPEGMVCKPSKSVHLTVLRWRCQRRGGQRCGWIPIQYPIISECKCSC
- Expression of the lateral plate marker KDR (hESCs; day 5): same effect as B0
